Source: patent publication US20250230165A1, “HETEROCYCLIC COMPOUNDS FOR USE IN THE TREATMENT OF CANCER” (ARTIOS PHARMA LIMITED, priority 2021, published 2025)

Each compound was assayed against T1, Human Polθ polymerase domain (aa1820-2590) (Homo sapiens, UniProt O75417) (assay: Polθ Polymerase Domain Kinact/KI Assay (PicoGreen)). Details: 0.8 nM Polθ, 100 nM DNA substrate, kobs vs [I] fit for 2-step covalent inhibitor.
T1 construct: Human Polθ polymerase domain (aa1820-2590) was expressed in E. coli; made in house; host or cells: E. coli
T1 sequence (O75417 1820-2590): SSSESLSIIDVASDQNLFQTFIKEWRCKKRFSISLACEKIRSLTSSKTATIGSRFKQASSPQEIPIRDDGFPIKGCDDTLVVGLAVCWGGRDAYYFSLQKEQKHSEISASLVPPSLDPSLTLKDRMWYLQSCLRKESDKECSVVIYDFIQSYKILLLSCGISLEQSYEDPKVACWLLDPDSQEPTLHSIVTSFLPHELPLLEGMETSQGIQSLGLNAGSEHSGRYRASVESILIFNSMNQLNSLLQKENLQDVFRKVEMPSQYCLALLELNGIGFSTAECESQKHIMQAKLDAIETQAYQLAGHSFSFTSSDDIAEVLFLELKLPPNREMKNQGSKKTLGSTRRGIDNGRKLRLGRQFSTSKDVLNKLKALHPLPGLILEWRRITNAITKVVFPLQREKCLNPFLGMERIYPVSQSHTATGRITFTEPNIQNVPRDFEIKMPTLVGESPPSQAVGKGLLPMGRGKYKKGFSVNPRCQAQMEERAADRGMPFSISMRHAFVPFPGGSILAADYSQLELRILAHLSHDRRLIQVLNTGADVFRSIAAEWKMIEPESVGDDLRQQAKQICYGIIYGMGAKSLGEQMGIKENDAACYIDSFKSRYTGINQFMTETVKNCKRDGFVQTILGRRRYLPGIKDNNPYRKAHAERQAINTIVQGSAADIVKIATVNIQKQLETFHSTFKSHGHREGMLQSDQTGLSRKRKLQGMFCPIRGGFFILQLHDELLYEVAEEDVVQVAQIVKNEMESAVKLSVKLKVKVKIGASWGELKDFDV
Assay type: biochemical
Experimental: Polθ Polymerase Domain Kinact/KI Assay
A PicoGreen assay was used to measure the Kinact and KI values of covalent compounds that inhibit the activity of Polθ in vitro.
Human Polθ polymerase domain (aa1820-2590) was expressed in E. coli, purified, aliquoted and stored at −80° C. until required. Polθ substrate was generated from a 1.2:1 mix of DNA II Short to DNA II Long to give a final concentration of […] substrate in annealing buffer (20 mM Tris pH 7.5, 50 mM NaCl). The substrate was heated in […] aliquots to 95° C. in a heating block for 5 min before the heating block switched off, the reaction left to cool to rt and stored at −20° C. until required.
Assay measurements were performed with 1× buffer comprising 25 mM Tris pH 7.5, 12.5 mM NaCl, […], 5% (v/v) glycerol, 0.01% v/v Triton x-100, 0.1 mg/ml BSA, 1 mM DTT. Test compounds were prepared by dilution in 100% DMSO to give a 12 μM intermediate stock of each (100× final top concentration). 100 nL of 23×1:1.5-fold serial dilutions and a DMSO only control were dispensed using the Tecan dispenser into Greiner 384 well black low volume plates (product code 784076). DMSO concentration was maintained at 1% of the final assay volume by back filling with DMSO.
2× Working stock of substrate (200 nM of DNA substrate and […] dNTPs) and enzyme ([…] PolΘ) were made up in assay buffer. 5 μL/well of both enzyme and substrate 2× solutions were dispensed using a Tempest dispenser (Formulatrix) into assay plates that had been pre-dispensed with compound to give a final assay concentration of 100 nM DNA substrate, […] dNTPs and 0.8 nM Polθ. To stop the reaction, […] of a solution containing 25 mM Tris-HCl pH 7.5 and 20 mM EDTA was added at […] (t=0, 2.5, 5, 7.5, 10, 12.5, 15, 20, 25, 30, 35, 40, 45, 50, 55 and 60 min) using the Tempest's time delay function. The plates were covered during the time course to prevent evaporation. After completing the assay, 5 μL of detection reagent (25 mM Tris-HCl pH 7.5 and 2.5% (v/v) PicoGreen) was dispensed into the wells using a Tempest liquid handler (Formulatrix) and plates subsequently read on the CLARIOstar Plus (BMG Labtech) using the default optical settings for fluorescein and the auto gain/focus settings.
All data analysis was carried out using GraphPad Prism V.8 (GraphPad Software Inc, San Diego, CA) Time course data for each inhibitor concentration was fitted to equation 1 to determine kobs values.^1 Any time points where the control (DMSO alone) reaction was no longer linear were excluded from the analysis. 1) Evaluation of Enzyme Inhibitors in Drug Discovery (Ch9), R. A Copeland, Wiley, 2nd Edition 2013.
A secondary plot of kobs vs [I] is used to determine the Kinact and KI parameters (for a 2-step covalent inhibitor) by fitting to equation 2.^1

SMILES	Kinact/Kl [M⁻¹ s⁻¹]
C=CC(=O)N1CC[C@]12CCN(CCN1C[C@H]3CC(=O)N(c4cc(C(F)(F)F)cc(C)n4)[C@@H]3C(=O)N(C)c3cccc(F)c31)C2 (racemic) [Example 21a, (3aR,11aS)-5-(2-((S/R)-1-acryloyl-1,6-diazaspiro[3.4]octan-6-yl)ethyl)-6-fluoro-10-methyl-1-(6-methyl-4-(trifluoromethyl)pyridin-2-yl)-1,3a,4,5,10,11a-hexahydro-2H-benzo[b]pyrrolo[2,3-f][1,4]diazocine-2, 11(3H)-dione]	54000
C=CC(=O)N1CCN2CCN(CCN3C[C@H]4CC(=O)N(c5cc(C(F)(F)F)cc(C)n5)[C@@H]4C(=O)N(C)c4cccc(F)c43)C[C@H]2C1 (racemic) [Example 23a, (3aR,11aS)-5-(2-((S/R)-8-acryloyloctahydro-2H-pyrazino[1,2-a]pyrazin-2-yl)ethyl)-6-fluoro-10-methyl-1-(6-methyl-4-(trifluoromethyl)pyridin-2-yl)-1,3a,4,5,10,11a-hexahydro-2H-benzo[b]pyrrolo[2,3-f][1,4]diazocine-2, 11(3H)-dione]	140000
C=CC(=O)N1CC2(CN(CCN3C[C@H]4CC(=O)N(c5cc(C(F)(F)F)cc(C)n5)[C@@H]4C(=O)N(C)c4cccc(F)c43)C[C@H]3COCCN32)C1 (racemic) [Example 24b, (3aR,11aS)-5-(2-((S/R)-1-acryloyltetrahydro-1′H-spiro[azetidine-3,6′-pyrazino[2,1-c][1,4]oxazin]-8′(7′H)-yl)ethyl)-6-fluoro-10-methyl-1-(6-methyl-4-(trifluoromethyl)pyridin-2-yl)-1,3a,4,5,10,11a-hexahydro-2H-benzo[b]pyrrolo[2,3-f][1,4]diazocine-2, 11(3H)-dione]	290000
C=CC(=O)N1CC2(CN(CCN3C[C@H]4CC(=O)N(c5cc(C(F)(F)F)cc(C)n5)[C@@H]4C(=O)N(C)c4cccc(Cl)c43)C[C@H]3COCCN32)C1 (racemic) [Example 26b, (3aR,11aS)-5-(2-((S/R)-1-acryloyl-tetrahydro-1′H-spiro[azetidine-3,6′-pyrazino[2,1-c][1,4]oxazin]-8′(7′H)-yl)ethyl)-6-chloro-10-methyl-1-(6-methyl-4-(trifluoromethyl)pyridin-2-yl)-1,3a,4,5,10,11a-hexahydro-2H-benzo[b]pyrrolo[2,3-f][1,4]diazocine-2, 11(3H)-dione]	1.29e+06
C=CC(=O)N1CC2(C1)NCCN(CCN1C[C@H]3CC(=O)N(c4cc(C(F)(F)F)cc(C)n4)[C@@H]3C(=O)N(C)c3cccc(F)c31)[C@H]2C (racemic) [Example 34a, (3aR,11aS)-5-(2-((S/R)-2-acryloyl-9-methyl-2,5,8-triazaspiro[3.5]nonan-8-yl)ethyl)-6-fluoro-10-methyl-1-(6-methyl-4-(trifluoromethyl)pyridin-2-yl)-1,3a,4,5, 10,11a-hexahydro-2H-benzo[b]pyrrolo [2,3-f][1,4]diazocine-2,11(3H)-dione]	1.2e+06
C=CC(=O)N1CC(N(C)C[C@H](O)CN2C[C@H]3CC(=O)N(c4cc(C(F)(F)F)cc(C)n4)[C@@H]3C(=O)N(C)c3cccc(Cl)c32)C1 (racemic) [Example 68, (3aR,11aS)-5-((S/R)-3-((1-acryloylazetidin-3-yl)(methyl)amino)-2-hydroxypropyl)-6-chloro-10-methyl-1-(6-methyl-4-(trifluoromethyl)pyridin-2-yl)-1,3a,4,5,10,11a-hexahydro-2H-benzo[b]pyrrolo[2,3-f][1,4]diazocine-2,11(3H)-dione]	660000
C=CC(=O)N1CC2(CN(CCN3C[C@H]4CC(=O)N(c5cc(C(F)(F)F)cc(C)n5)[C@@H]4C(=O)N(C)c4cccc(Cl)c43)C[C@H]2C#N)C1 (racemic) [Example 117b, (S/R)-2-acryloyl-6-(2-((3aR,11aS)-6-chloro-10-methyl-1-(6-methyl-4-(trifluoromethyl)pyridin-2-yl)-2,11-dioxo-1,2,3,3a,4,10,11,11a-octahydro-5H-benzo[b]pyrrolo[2,3-f][1,4]diazocin-5-yl)ethyl)-2,6-diazaspiro[3.4]octane-8-carbonitrile]	3.5e+06
C=CC(=O)N1CC2(CN(CCN3C[C@H]4CC(=O)N(c5cc(C(F)(F)F)cc(C)n5)[C@@H]4C(=O)N(C)c4cccc(C)c43)C[C@H]2C#N)C1 (racemic) [Example 118b, (S/R)-2-acryloyl-6-(2-((3aR,11aS)-6,10-dimethyl-1-(6-methyl-4-(trifluoromethyl)pyridin-2-yl)-2,11-dioxo-1,2,3,3a,4,10,11,11a-octahydro-5H-benzo[b]pyrrolo[2,3-f][1,4]diazocin-5-yl)ethyl)-2,6-diazaspiro[3.4]octane-8-carbonitrile]	3.36e+06
C=CC(=O)N1CC2(CN(CCN3C[C@H]4CC(=O)N(c5cc(C(F)(F)F)cc(C)n5)[C@@H]4C(=O)N(C)c4cccc(C)c43)C[C@@]2(C)C#N)C1 (racemic) [Example 119b, (S/R)-2-acryloyl-6-(2-((3aR,11aS)-6,10-dimethyl-1-(6-methyl-4-(trifluoromethyl)pyridin-2-yl)-2,11-dioxo-1,2,3,3a,4,10,11,11a-octahydro-5H-benzo[b]pyrrolo[2,3-f][1,4]diazocin-5-yl)ethyl)-8-methyl-2,6-diazaspiro[3.4]octane-8-carbonitrile]	3.87e+06
C=CC(=O)N1CCC[C@H]1c1ccc(CN2C[C@H]3CC(=O)N(c4cc(C(F)(F)F)cc(C)n4)[C@@H]3C(=O)N(C)c3cccc(F)c32)cc1 (racemic) [Example 141b, (3aR,11aS)-5-(4-((S/R)-1-acryloylpyrrolidin-2-yl)benzyl)-6-fluoro-10-methyl-1-(6-methyl-4-(trifluoromethyl)pyridin-2-yl)-1,3a,4,5,10,11a-hexahydro-2H-benzo[b]pyrrolo[2,3-f][1,4]diazocine-2,11(3H)-dione]	100000
C=CC(=O)N1CCn2cc(CN3C[C@H]4CC(=O)N(c5cc(C(F)(F)F)cc(C)n5)[C@@H]4C(=O)N(C)c4cccc(Cl)c43)nc2[C@@H]1C (racemic) [Example 142b]	630000
C=CC(=O)N1Cc2nc(CN3C[C@H]4CC(=O)N(c5cc(C(F)(F)F)cc(C)n5)[C@@H]4C(=O)N(C)c4cccc(Cl)c43)cn2C[C@H]1C (racemic) [Example 143b, (3aR,11aS)-5-(((S/R)-7-acryloyl-6-methyl-5,6,7,8-tetrahydroimidazo[1,2-a]pyrazin-2-yl)methyl)-6-chloro-10-methyl-1-(6-methyl-4-(trifluoromethyl)pyridin-2-yl)-1,3a,4,5,10,11a-hexahydro-2H-benzo[b]pyrrolo[2,3-f][1,4]diazocine-2,11(3H)-dione]	2.32e+06
